Results: US20230114241A1, “METHODS OF TREATING EPILEPSY USING THE SAME” (Trevena, Inc., priority 2019, published 2023)

target: human sphingosine-1-phosphate receptor 1 (S1P1) (Homo sapiens, UniProt P21453); test: Inhibition of cAMP production (HTRF cAMP HiRange), S1P1 CHO-K1 cells; format: cell-based; details: inhibition of cAMP production, S1P1; read-out: hS1P1 CAMP pEC50 (converted)
How it was run: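 CHO-K1 cells co-expressing human S1P1 (C-terminal ProLink tag) and EA-β-arrestin2, plated overnight; after 30 min compound incubation at 37 °C, intracellular cAMP measured by HTRF TR-FRET following 1 h at room temperature. Values normalized to fingolimod.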

Sequence of human sphingosine-1-phosphate receptor 1 (S1P1) (P21453 whole entry): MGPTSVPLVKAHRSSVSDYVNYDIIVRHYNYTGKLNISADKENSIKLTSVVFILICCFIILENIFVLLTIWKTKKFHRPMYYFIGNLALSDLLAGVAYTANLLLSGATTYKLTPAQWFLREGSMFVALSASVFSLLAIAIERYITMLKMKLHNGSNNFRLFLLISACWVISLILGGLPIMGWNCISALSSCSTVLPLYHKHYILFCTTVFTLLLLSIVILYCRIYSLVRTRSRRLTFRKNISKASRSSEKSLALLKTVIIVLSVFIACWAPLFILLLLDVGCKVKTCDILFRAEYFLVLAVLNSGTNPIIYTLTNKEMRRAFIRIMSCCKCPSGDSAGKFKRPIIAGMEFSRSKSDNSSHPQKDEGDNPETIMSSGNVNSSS

`CC(C)(O)Cn1nnc2cc(-c3nc(-c4cccc5cc[nH]c45)no3)ccc21` [Compound 577, 1-{5-[3-(1H-indol-7-yl)-1,2,4-oxadiazol-5-yl]-1H-1,2,3-benzotriazol-1-yl}-2-methylpropan-2-ol] and `CC(C)(CO)n1nnc2cc(-c3noc(-c4cnccc4C(F)(F)F)n3)ccc21` [Compound 644, 2-methyl-2-(5-(5-(4-(trifluoro-methyl)pyridin-3-yl)-1,2,4-oxadiazol-3-yl)-1H-benzo[d][1,2,3]triazol-1-yl)propan-1-ol] cannot be ordered by EC50: over 0.316 µM for the first, over 0.316 µM for the second.

`CC(C)n1nnc2cc(-c3nc4c(o3)CCCc3ccccc3-4)ccc21` [Compound 434, 4-[1-(propan-2-yl)-1H-1,2,3-benzotriazol-5-yl]-5-oxa-3-azatricyclo[8.4.0.0^2,6] tetradeca-1(14),2(6),3,10,12-pentaene] and `CC(C)n1nnc2cc(-c3nc(-c4ccccn4)co3)ccc21` [Compound 474, 1-(propan-2-yl)-5-[4-(pyridin-2-yl)-1,3-oxazol-2-yl]-1H-1,2,3-benzotriazole] cannot be ordered by EC50: over 0.316 µM for the first, over 0.316 µM for the second.

`Cc1cn(C)nc1-c1noc(-c2ccc3c(c2)nnn3C(C)C)n1` [Compound 519, 5-[3-(1,4-dimethyl-1H-pyrazol-3-yl)-1,2,4-oxadiazol-5-yl]-1-(propan-2-yl)-1H-1,2,3-benzotriazole] and `COc1cccnc1-c1nc(-c2ccc3c(c2)nnn3C(C)C)no1` [Compound 612, 3-(1-isopropyl-1H-benzo[d][1,2,3]triazol-5-yl)-5-(3-methoxy-pyridin-2-yl)-1,2,4-oxadiazole] cannot be ordered by EC50: under 0.316 µM for the first, under 0.316 µM for the second.

`CC(C)Nc1ccc(-c2nc(-c3ccc4sc(N)nc4c3)no2)cc1C#N` [Compound 441, 5-(3-(2-aminobenzo[d]thiazol-5-yl)-1,2,4-oxadiazol-5-yl)-2-(isopropylamino) benzonitrile] and `CC(C)Nc1ccc(-c2ccc(-c3ccc4c(c3)nnn4C(C)C)cc2)cc1C#N` [Compound 507, 4′-(1-isopropyl-1H-benzo[d][1,2,3]triazol-5-yl)-4-(isopropylamino)-[1,1′-biphenyl]-3-carbonitrile] cannot be ordered by EC50: under 0.316 µM for the first, under 0.316 µM for the second.

`CCC1(CC)CC(=O)c2cc(-c3nc(-c4ccc(NC(C)=O)cc4OC(F)(F)F)no3)ccc2O1` [Compound 584, N-{4-[5-(2,2-diethyl-4-oxo-3,4-dihydro-2H-1-benzopyran-6-yl)-1,2,4-oxadiazol-3-yl]-3-(trifluoromethoxy)phenyl}acetamide] and `CCC1(CC)CC(=O)c2cc(-c3nc(-c4cncc(NS(C)(=O)=O)c4)no3)ccc2O1` [Compound 545, N-(5-(5-(2,2-diethyl-4-oxochroman-6-yl)-1,2,4-oxadiazol-3-yl)pyridin-3-yl)methanesulfonamide] cannot be ordered by EC50: under 0.316 µM for the first, under 0.316 µM for the second.

Going from `COc1ncccc1-c1nc(-c2ccc3c(c2)nnn3C(C)C)no1` [Compound 607, 3-(1-isopropyl-1H-benzo[d][1,2,3]triazol-5-yl)-5-(2-methoxy-pyridin-3-yl)-1,2,4-oxadiazole] to `Cc1nccnc1-c1nc(-c2ccc3c(c2)nnn3C(C)(C)CO)no1` [Compound 641, 2-methyl-2-(5-(5-(3-methyl-pyrazin-2-yl)-1,2,4-oxadiazol-3-yl)-1H-benzo[d][1,2,3]triazol-1-yl)propan-1-ol], the EC50 rises from under 0.316 µM to over 0.316 µM.

`N#Cc1cc(-c2nnc(-c3ccc4[nH]cnc4c3)o2)ccc1NC(CF)CF` [Compound 600, 5-[5-(1H-1,3-benzo-diazol-5-yl)-1,3,4-oxadiazol-2-yl]-2-[(1,3-difluoropropan-2-yl)amino]benzonitrile] and `CCC1(CC)CC(=O)c2cc(-c3nc(-c4ccsc4)no3)ccc2N1` [Compound 554, 2,2-diethyl-6-(3-(thiophen-3-yl)-1,2,4-oxadiazol-5-yl)-2,3-dihydroquinolin-4(1H)-one] cannot be ordered by EC50: under 0.316 µM for the first, under 0.316 µM for the second.

same assay, conditions: inhibition of cAMP production; potency; read-out: hS1P1 CAMP pEC50 (converted)

`CCC1(CC)CC(=O)c2cc(-c3nc(-c4ccc(O)nc4)no3)ccc2O1` [Compound 105, 2,2-diethyl-6-[3-(6-hydroxy-3-pyridyl)-1,2,4-oxadiazol-5-yl]chroman-4-one] and `CCC1(CC)CC(=O)c2cc(-c3nc(-c4ccc(OC)nc4)no3)ccc2O1` [Compound 301, 2,2-diethyl-6-[3-(6-methoxy-3-pyridyl)-1,2,4-oxadiazol-5-yl]chroman-4-one] cannot be ordered by EC50: over 0.316 µM for the first, over 0.316 µM for the second.

`CC(C)n1ccc2cc(-c3nc(-c4ccccc4O)no3)ccc21` [Compound 323, 2-(5-(1-isopropyl-1H-indol-5-yl)-1,2,4-oxadiazol-3-yl)phenol] and `CC(C)n1ccc2cc(-c3nc(-c4cccc5c4OCO5)no3)ccc21` [Compound 326, 3-(benzo[d][1,3]dioxol-4-yl)-5-(1-isopropyl-1H-indol-5-yl)-1,2,4-oxadiazole] cannot be ordered by EC50: over 0.316 µM for the first, over 0.316 µM for the second.

`CCC1(CC)CC(=O)c2cc(-c3nnc(-c4ccc5c(c4)nnn5C(C)C)s3)ccc2O1` [Compound 67, 2,2-diethyl-6-(5-(1-isopropyl-1H-benzo[d][1,2,3]triazol-5-yl)-1,3,4-thiadiazol-2-yl)chroman-4-one] and `CCC1(CC)CC(=O)c2cc(-c3nc(-c4ccc5[nH]cnc5c4)no3)ccc2O1` [Compound 211, 6-(3-(1H-benzo[d]imidazol-5-yl)-1,2,4-oxadiazol-5-yl)-2,2-diethylchroman-4-one] cannot be ordered by EC50: over 0.316 µM for the first, over 0.316 µM for the second.

`C=CCNc1ccc(-c2nc(-c3ccc4c(c3)CCC(=O)N4)no2)cc1C#N` [Compound 61, 2-(allylamino)-5-(3-(2-oxo-1,2,3,4-tetrahydroquinolin-6-yl)-1,2,4-oxadiazol-5-yl)benzonitrile] and `N#Cc1cc(-c2nc(-c3ccc4c(c3)CC(=O)N4)no2)ccc1NCC1CC1` [Compound 210, 2-((cyclopropyl-methyl)amino)-5-(3-(2-oxoindolin-5-yl)-1,2,4-oxadiazol-5-yl)benzonitrile] cannot be ordered by EC50: under 0.316 µM for the first, under 0.316 µM for the second.

`Cc1ccc(-c2noc(-c3ccc4c(c3)nnn4C3CC3)n2)cn1` [Compound 87, 1-cyclopropyl-5-[3-(6-methylpyridin-3-yl)-1,2,4-oxadiazol-5-yl]-1H-1,2,3-benzotriazole] and `Cc1ccc(-c2noc(-c3ccc4c(c3)nnn4C(C)C)n2)cn1` [Compound 236, 5-[3-(6-methylpyridin-3-yl)-1,2,4-oxadiazol-5-yl]-1-(propan-2-yl)-1H-1,2,3-benzotriazole] cannot be ordered by EC50: over 0.316 µM for the first, over 0.316 µM for the second.

`FC(F)(F)c1cc(Br)ccc1-c1noc(-c2ccc3c(c2)nnn3C2CCCC2)n1` [Compound 114, 5-{3-[4-bromo-2-(trifluoromethyl)phenyl]-1,2,4-oxadiazol-5-yl}-1-cyclopentyl-1H-1,2,3-benzotriazole] and `Cc1ccccc1-c1noc(-c2ccc3c(c2)nnn3C2CCOCC2)n1` [Compound 95, 5-[3-(2-methylphenyl)-1,2,4-oxadiazol-5-yl]-1-(oxan-4-yl)-1H-1,2,3-benzotriazole] cannot be ordered by EC50: over 0.316 µM for the first, over 0.316 µM for the second.

Going from `CCC1(CC)CC(=O)c2cc(-c3nc(-c4ccc(NC)cc4)no3)ccc2O1` [Compound 153, 2,2-diethyl-6-(3-(4-(methylamino)phenyl)-1,2,4-oxadiazol-5-yl)chroman-4-one] to `CCC1(CC)CC(=O)c2cc(-c3nc(-c4ccc(C(=O)NC)cc4)no3)ccc2O1` [Compound 185, 4-(5-(2,2-diethyl-4-oxochroman-6-yl)-1,2,4-oxadiazol-3-yl)-N-methylbenzamide], the EC50 falls from over 0.316 µM to under 0.316 µM.

Compared with `COc1cccc(F)c1-c1noc(-c2ccc3c(cnn3C(C)C)c2)n1` [Compound 338, 3-(2-fluoro-6-methoxy-phenyl)-5-(1-isopropyl-indazol-5-yl)-1,2,4-oxadiazole], `CC(C)n1ncc2cc(-c3nc(-c4ccccc4OC(F)(F)F)no3)ccc21` [Compound 331, 5-(1-isopropyl-1H-indazol-5-yl)-3-(2-(trifluoro-methoxy)phenyl)-1,2,4-oxadiazole] is lower in EC50: over 0.316 µM for the first, under 0.316 µM for the second.

First: COc1ccccc1-c1nc(-c2ccc3c(c2)nnn3C(C)C)ns1 [Compound 138, 5-[5-(2-methoxyphenyl)-1,2,4-thiadiazol-3-yl]-1-(propan-2-yl)-1H-1,2,3-benzotriazole]
Second: CCc1ncc(-c2noc(-c3ccc4c(c3)nnn4C(C)C)n2)cn1 [Compound 135, 5-[3-(2-ethylpyrimidin-5-yl)-1,2,4-oxadiazol-5-yl]-1-(propan-2-yl)-1H-1,2,3-benzotriazole]
The EC50 of the first is lower: under 0.316 µM for the first, over 0.316 µM for the second.

`CCCn1nnc2cc(-c3nc(-c4cccc(C(F)(F)F)c4)no3)ccc21` [Compound 242, 1-propyl-5-{3-[3-(trifluoromethyl)phenyl]-1,2,4-oxadiazol-5-yl}-1H-1,2,3-benzotriazole] and `Brc1ccccc1-c1nc(-c2ccc3c(c2)nnn3CC2CC2)no1` [Compound 98, 5-(2-bromophenyl)-3-(1-(cyclopropylmethyl)-1H-benzo[d][1,2,3]triazol-5-yl)-1,2,4-oxadiazole] cannot be ordered by EC50: over 0.316 µM for the first, over 0.316 µM for the second.

First: CCC1(CC)CC(=O)c2cc(-c3nc(-c4ccnc(C(F)(F)F)c4)no3)ccc2O1 [Compound 314, 2,2-diethyl-6-(3-(2-(trifluoromethyl)pyridin-4-yl)-1,2,4-oxadiazol-5-yl)chroman-4-one]
Second: CC1(C)CCC2(CC1)CC(=O)c1cc(-c3nc(-c4ccncc4)no3)ccc1O2 [Compound 254, 4′,4′-dimethyl-6-[3-(pyridin-4-yl)-1,2,4-oxadiazol-5-yl]-3,4-dihydrospiro[1-benzopyran-2,1′-cyclohexane]-4-one]
The EC50 of the first is higher: over 0.316 µM for the first, under 0.316 µM for the second.

`Clc1ccc(-c2noc(-c3ccc4c(c3)nnn4C3CCOCC3)n2)s1` [Compound 82, 5-[3-(5-chlorothiophen-2-yl)-1,2,4-oxadiazol-5-yl]-1-(oxan-4-yl)-1H-1,2,3-benzotriazole] and `Cc1cnc(-c2noc(-c3ccc4c(c3)nnn4C3CCOCC3)n2)cn1` [Compound 6, 5-[3-(5-methylpyrazin-2-yl)-1,2,4-oxadiazol-5-yl]-1-(oxan-4-yl)-1H-1,2,3-benzotriazole] cannot be ordered by EC50: over 0.316 µM for the first, over 0.316 µM for the second.

Work on `CC(C)n1nnc2cc(-c3noc(C4CCC(F)(F)CC4)n3)ccc21` [Compound 125, 5-[5-(4,4-difluoro-cyclohexyl)-1,2,4-oxadiazol-3-yl]-1-(propan-2-yl)-1H-1,2,3-benzotriazole] yielded an EC50 of over 0.316 µM.
